Assay results published in patent US4466980A, “Thiaprostaglandin E1 derivatives, process for production thereof, and pharmaceutical use thereof” (Teijin Limited, priority 1980, dated 1984).
≈ marks a conversion by molar mass, not a printed value.

What was measured:
platelet aggregation [1] = assay: in vitro inhibitory activity of platelet aggregation (ADP); type: cell-based, rabbit (Japanese domestic white male); details: Oryctolagus cuniculus, rabbit PRP, 10 μM ADP, 37° C., read-out: IC50 (minimum concentration which inhibited more than 50% of platelet aggregation)
Experimental: The in vitro platelet aggregation imhibiting activity of the compounds of the invention were examined by using rabbits. Blood was withdrawn from the ear vein of Japanese domestic white male rabbits weighing 2.5 to 3.5 kg. A mixture of a 3.8% trisodium citrate solution and the blood in a ratio of 1:9 was centrifuged at a speed of 1000 rpm for 10 minutes. The upper layer was separated as platelet-rich plasma (PRP). The lower layer was further centrifuged at a speed of 2800 rpm for 10 minutes. The upper layer was separated as platelet-poor plasma (PPP). The number of platelets was adjusted to 6×10^5 /μl to 7×10^5 /μl by diluting the PRP with PPP. 25 microliters of the test compounds prepared as shown below was added in an amount of 25 to 250 microliters of PRP after the adjustment, and the mixture was pre-incubated at 37° C. for 2 minutes, and then 10 μM (final) of ADP was added. By using an aggregometer, changes in transmission were recorded.
The drug was dissolved in ethanol to a concentration of 10 mg/ml, and successively diluted with phosphate buffer (pH 7.4) prior to use.
The rate of inhibition of platelet aggregation was determined from the following equation. [formula] To : the transmittance of the system containing the phosphate buffer, T: the transmittance of the sytem to which the test drug was added.
The minimum concentration of the drug which inhibited more than 50% of platelet aggregation was shown as an IC50 value.

[2] = tested on: blood pressure and heart beat rate of rats; assay: hypotensive activity and heart beat rate, intravenous injection in anesthetized rats; type: in vivo, male wister rats; details: Rattus norvegicus, i.v.; for ED (10% increase of heart rate): read-out: H-ED10 (dosage causing a 10% increase of the heart rate); for ED (20% lowering of blood pressure): read-out: P-ED20 (dosage causing a 20% lowering of the mean blood pressure)
Experimental: (1) The actions of the thiaprostaglandin E1 derivatives of the invention on the blood pressure and heart beat rate of rats were examined by intravenous injection under anesthesia. Male wister rats weighing about 250 g were used. Urethane (500 mg/kg) and α-chloralose (100 mg/kg) were intraperitoneally administered to the rats. The rats were anesthetized and fixed in place. Each of the test compounds was dissolved in a small amount of ethanol and diluted with physiological saline to adjust the final ethanol concentration to not more than 5%. The solution was intravenously injected into the rats through a catheter inserted into the femoral vein. The blood pressure of the rats was measured by a pressure transducer through a catheter inserted into the carotid artery of the rats. The heart beat rate was determined from the blood pressure pulse. The action of the test compound of the blood pressure was expressed as the dosage (p-ED20, μg/kg) of the test compound which caused a 20% lowering of the mean blood pressure before administration of the compound. The action of the test compound on the heart rate was expressed as the dosage (H-ED10, μg/kg) of the test compound which caused a 10% increase of the heart rate from the heart beat rate before administration of the test compound.

platelet aggregation [3] = assay: extra vivo inhibitory activity of platelet aggregation after oral administration; type: in vivo, guinea pigs (Hartley strain); details: Cavia porcellus; for inhibition at 10 mg/kg: 10 mg/kg p.o.; for inhibition at 3 mg/kg: 3 mg/kg p.o.
Experimental: The extra vivo platelet aggregation inhibitory activity of the 7-thiaprostaglandin E1 derivatives of the invention were measured by using guinea pigs. A test drug prepared as a 30% ethanol solution of each of the compounds of the invention in ethanol diluted with physiological saline and as a control 30% ethanol solution were orally adminstered in a dose of 1 ml/kg to Hartleystrain guinea pigs having a body weight of 350 to 450 g which had been fasted for 17 hours. 1 hour or 4 hours after the administration of the compound, blood was drawn off by the cardiac puncture using trisodium citrate so that the ratio of the blood to 3.8% trisodium citrate was 9:1. The blood was centrifuged at a speed of 700 rpm for 10 minutes. The upper layer was separated as plateletrich plasma (PRP). The lower layer was further centrifuged at a speed of 2800 rpm for 10 minutes. The upper layer was separated as platelet poor plasma (PPP). 250 microliters of the resulting PRP was taken into an aggregometer cuvette, and incubated at 37° C. for 2 minutes. Then, 25 microliters of a […] ADP disodium solution adjusted by dissolving with 0.1M tris-HCl buffer (ph 8.0) was added. The aggregation curve was recorded for 3 minutes. The maximum degree of aggregation of platelets within this time period was read, and the rate of inhibitor of platelet aggregation was calculated from the following equation. [formula] TC : the transmittance of a control group (to which only the 30% ethanol solution was administered),
TD : the transmittance of a drug administered group.

SMILES | IC50 (platelet aggregation [1]) [µg/mL] | other results
COC(=O)/C=C/CCCS[C@H]1C(=O)C[C@@H](O)[C@@H]1/C=C/[C@@H](O)C1CCCCC1 [Compound 156, 16,17,18,19,20-pentanor-15-cyclohexyl-2,3-dehydro-7-thiaprostaglandin E1 methyl ester] | 0.091 (≈ 0.229 µM) | –
CCCCC[C@H](O)/C=C/[C@H]1[C@H](O)CC(=O)[C@@H]1CSCCCCC(=O)O [Compound 300, 6-thiaprostaglandin E1] | 0.45 (≈ 1.21 µM) | –
O=C(O)CCCCSC[C@H]1C(=O)C[C@@H](O)[C@@H]1/C=C/[C@@H](O)C1CCCCC1 [Compound 303, 16,17,18,19,20-pentanor-15-cyclohexyl-6-thiaprostaglandin E1] | 0.27 (≈ 0.702 µM) | –
CCCC(C)CC(O)/C=C/[C@H]1CCC(=O)[C@@H]1SCCCCCC(=O)OC (relative stereo) [reference compound] | > 100 | –
O=C(O)CCCCCS[C@H]1C(=O)C[C@@H](O)[C@@H]1/C=C/[C@@H](O)C1CCCCC1 [Compound 111, 16,17,18,19,20-pentanor-15-cyclohexyl-7-thiaprostaglandin E1] | 0.004 (≈ 0.0104 µM) | ED (10% increase of heart rate) [2]: 2.5 µg/kg; ED (20% lowering of blood pressure) [2]: 1.17 µg/kg
CCCC[C@H](C)C[C@H](O)/C=C/[C@H]1[C@H](O)CC(=O)[C@@H]1SCCC/C=C/C(=O)OC [Compound 160, 17(S),20-dimethyl-2,3-dehydro-7-thiaprostaglandin E1 methyl ester] | 0.64 (≈ 1.55 µM) | –
CCCCC[C@H](O)/C=C/[C@H]1[C@H](O)CC(=O)[C@@H]1CCCSCCC(=O)OC [Compound 405, 4-thiaprostaglandin E1 methyl ester] | 8.6 (≈ 22.2 µM) | –
COC(=O)CCSCCC[C@H]1C(=O)C[C@@H](O)[C@@H]1/C=C/[C@@H](O)C1CCCCC1 [Compound 413] | 2.4 (≈ 6.02 µM) | –
COC(=O)CCCCSC[C@H]1C(=O)C[C@@H](O)[C@@H]1/C=C/[C@@H](O)C1CCCCC1 [Compound 308, 16,17,18,19,20-pentanor-15-cyclohexyl-6-thiaprostaglandin E1 methyl ester] | 0.32 (≈ 0.803 µM) | –
COC(=O)CCCCCS[C@@H]1C(=O)C[C@H](O)[C@H]1/C=C/[C@@H](O)C1CCCCC1 [15-epi-ent of Compound 138] | 0.11 (≈ 0.276 µM) | –
CCCCC[C@H](O)/C=C/[C@H]1[C@H](O)CC(=O)[C@@H]1SCCCCCC(=O)OC [Compound 124, 7-Thiaprostaglandin E1 methyl ester] | 0.47 (≈ 1.22 µM) | –
CCCC[C@@H](C)C[C@H](O)/C=C/[C@H]1[C@H](O)CC(=O)[C@@H]1SCCCCCC(=O)OC [Compound 134, 17(R),20-dimethyl-7-thiaprostaglandin E1 methyl ester] | 0.0018 (≈ 0.00434 µM) | –
CCCCCCCCCCOC(=O)CCCCCS[C@H]1C(=O)C[C@@H](O)[C@@H]1/C=C/[C@@H](O)C1CCCCC1 [Compound 143, 16,17,18,19,20-pentanor-15-cyclohexyl-7-thiaprostaglandin E1 decyl ester] | 0.058 (≈ 0.111 µM) | –
CCCCC[C@H](O)/C=C/[C@H]1[C@H](O)CC(=O)[C@@H]1CSCCCCC(=O)OC [Compound 305, 6-thiaprostaglandin E1 methyl ester] | 6 (≈ 15.5 µM) | –
COC(=O)C(C)CCCCS[C@H]1C(=O)C[C@@H](O)[C@@H]1/C=C/[C@@H](O)C1CCCCC1 (stereo partly shown) [Compound 150, 16,17,18,19,20-pentanor-15-cyclohexyl-2-methyl-7-thiaprostaglandin E1 methyl ester] | 0.52 (≈ 1.26 µM) | inhibition at 10 mg/kg (platelet aggregation [3]; 1 hr): 20.8%; inhibition at 10 mg/kg (platelet aggregation [3]; 4 hr): 0.7%
CCCCC[C@H](O)/C=C/[C@H]1[C@H](SCCCCCC(=O)OC)C(=O)C[C@@H]1O [15-epi-ent of Compound 124] | 8.9 (≈ 23 µM) | –
O=C(CCCCCS[C@H]1C(=O)C[C@@H](O)[C@@H]1/C=C/[C@@H](O)C1CCCCC1)Oc1ccccc1 [Compound 144, 16,17,18,19,20-pentanor-15-cyclohexyl-7-thiaprostaglandin E1 phenyl ester] | 0.015 (≈ 0.0326 µM) | ED (10% increase of heart rate) [2]: 2.6 µg/kg; ED (20% lowering of blood pressure) [2]: 3.4 µg/kg; inhibition at 3 mg/kg (platelet aggregation [3]; 1 hr): 37.4%; inhibition at 3 mg/kg (platelet aggregation [3]; 4 hr): 3%; inhibition at 10 mg/kg (platelet aggregation [3]; 1 hr): 85.4%; inhibition at 10 mg/kg (platelet aggregation [3]; 4 hr): 79.2%
CCCC[C@H](C)C[C@H](O)/C=C/[C@H]1[C@H](O)CC(=O)[C@@H]1SCCCCCC(=O)OC [Compound 131, 17(S),20-dimethyl-7-thiaprostaglandin E1 methyl ester] | 0.0006 (≈ 0.00145 µM) | ED (10% increase of heart rate) [2]: 0.83 µg/kg; ED (20% lowering of blood pressure) [2]: 2.3 µg/kg; inhibition at 3 mg/kg (platelet aggregation [3]; 1 hr): 100%
O=C(CCCCCS[C@H]1C(=O)C[C@@H](O)[C@@H]1/C=C/[C@@H](O)C1CCCCC1)OCc1ccccc1 [Compound 147, 16,17,18,19,20-pentanor-15-cyclohexyl-7-thiaprostaglandin E1 benzyl ester] | 0.054 (≈ 0.114 µM) | inhibition at 10 mg/kg (platelet aggregation [3]; 1 hr): 54%; inhibition at 10 mg/kg (platelet aggregation [3]; 4 hr): 28.9%
